In ChEMBL document CHEMBL1146391, “Antifungal diterpenoid alkaloids from Delphinium denudatum” (1997):
Values after ≈ are worked out from the molar mass of the structure shown. Active and inactive are the calls of the source. No cut-off for these calls is given here.

Columns and labels:
Aspergillus niger = experiment: Antifungal activity against Aspergillus niger after 7 days by agar tube dilution method; assay type: functional; conditions: 168 h
Scedosporium boydii = experiment: Antifungal activity against Allescheria boydii after 7 days by agar tube dilution method; assay type: functional; conditions: 168 h
Epidermophyton floccosum = experiment: Antifungal activity against Epidermophyton floccosum after 7 days by agar tube dilution method; assay type: functional; conditions: 168 h
Pleurotus ostreatus = experiment: Antifungal activity against Pleurotus ostreatus after 7 days by agar tube dilution method; assay type: functional; conditions: 168 h
[1] = Antifungal activity against Dutarium rotatum after 7 days by agar tube dilution method; assay type: functional
Nigrospora oryzae = experiment: Antifungal activity against Nigrospora oryzae after 7 days by agar tube dilution method; assay type: functional, organism-based
Stachybotrys chartarum = experiment: Antifungal activity against Stachybotrys atra after 7 days by agar tube dilution method; assay type: functional, organism-based

| Structure (SMILES) | MIC (Aspergillus niger) [µg/mL] | MIC (Scedosporium boydii) [µg/mL] | MIC (Epidermophyton floccosum) [µg/mL] | MIC (Pleurotus ostreatus) [µg/mL] | Activity [1] | Activity (Nigrospora oryzae) | Activity (Stachybotrys chartarum) |
| --- | --- | --- | --- | --- | --- | --- | --- |
| CCN1C[C@]2(C)CC[C@H](OC)[C@@]34[C@@H]5C[C@@H]6CC[C@](OC(C)=O)([C@@H](C[C@H]23)[C@@H]14)[C@H]5C(=O)O6 | 200 (≈ 479 µM) | 100 (≈ 239 µM) | 250 (≈ 599 µM) | 150 (≈ 359 µM) | – | – | – |
| C=C1C[C@@]23CC(=O)[C@@H]4[C@@]5(C)C[C@H](OC(C)=O)C[C@@]46[C@@H]2C[C@@H]1C(=O)[C@@H]3[C@H]6N(C)C5 [PANICUTINE] | 125 (≈ 326 µM) | 75 (≈ 196 µM) | 200 (≈ 522 µM) | 125 (≈ 326 µM) | Active | Active | Active |
| C=C1C[C@@]23C(=O)C(=O)[C@@H]4[C@@]5(C)C[C@H](OC(C)=O)C[C@@]46[C@@H]2C[C@@H]1C(=O)[C@@H]3[C@H]6N(C)C5 [VILMORRIANONE] | 100 (≈ 252 µM) | 150 (≈ 377 µM) | 225 (≈ 566 µM) | 175 (≈ 440 µM) | – | – | – |
